# Experimental data reported in patent US9113629B2, “4-amino-6-(4-substituted-phenyl)-picolinates and 6-amino-2-(4-substituted-phenyl)-pyrimidine-4-carboxylates and their use as herbicides” (DOW AGROSCIENCES LLC, priority 2013, dated 2015).
# Read-outs that look alike come from different tables or passages of the source.
# How the values were obtained:
# [1] = system: Key Broadleaf Weed and Crop Species; experiment: Post-emergent Test II herbicidal activity (Table 5); format: in vivo; details: post-emergence, 336 h, post-emergent, 14 days after application; for pest or weed control at 70 g/ha: 70 g ai/ha; for pest or weed control at 140 g/ha: 140 g ai/ha
# In short: (§1)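 Compounds, dissolved in 97:3 acetone/DMSO and diluted into an aqueous carrier containing crop oil concentrate and Triton X-155, are applied over the top of young plants at 187 L/ha. Injury is scored visually at 14 d, 0% meaning no effect and 100% complete kill.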
# [2] = system: Key Grass and Sedge Weeds as well as Grass Crops; experiment: Post-emergent Test II herbicidal activity (Table 6); format: in vivo; details: post-emergence, 336 h; for pest or weed control at 70 g/ha: application rate 70 g ai/ha; for pest or weed control at 140 g/ha: application rate 140 g ai/ha
# In short: as §1
# [3] = ABUTH: velvetleaf (Abutilon theophrasti), read-out: Visual Growth Reduction (%) 14 Days After Application ABUTH
# [4] = AMARE: redroot pigweed (Amaranthus retroflexus), read-out: Visual Growth Reduction (%) 14 Days After Application AMARE
# [5] = BRSNN: oilseed-rape, canola (Brassica napus), read-out: Visual Growth Reduction (%) 14 Days After Application BRSNN
# [6] = CHEAL: lambsquarters (Chenopodium album), read-out: Visual Growth Reduction (%) 14 Days After Application CHEAL
# [7] = EPHHL: wild poinsettia (Euphorbia heterophylla), read-out: Visual Growth Reduction (%) 14 Days After Application EPHHL
# [8] = HELAN: sunflower (Helianthus annuus), read-out: Visual Growth Reduction (%) 14 Days After Application HELAN
# [9] = VIOTR: wild pansy (Viola tricolor), read-out: Visual Growth Reduction (%) 14 Days After Application VIOTR
# [10] = CYPES: yellow nutsedge (Cyperus esculentus), read-out: Visual Growth Reduction (%) 14 Days After Application, CYPES
# [11] = DIGSA: crabgrass (Digitaria sanguinalis), read-out: Visual Growth Reduction (%) 14 Days After Application, DIGSA
# [12] = ECHCG: barnyardgrass (Echinochloa crus-galli), read-out: Visual Growth Reduction (%) 14 Days After Application, ECHCG
# [13] = ORYSA: rice (Oryza sativa), read-out: Visual Growth Reduction (%) 14 Days After Application, ORYSA
# [14] = SETFA: giant foxtail (Setaria faberi), read-out: Visual Growth Reduction (%) 14 Days After Application, SETFA
# [15] = SORVU: grain sorghum (Sorghum vulgare), read-out: Visual Growth Reduction (%) 14 Days After Application, SORVU
# [16] = TRZSS (wheat, Triticum aestivum), read-out: Visual Growth Reduction (%) 14 Days After Application, TRZSS
# [17] = ZEAMX: maize, corn (Zea mays), read-out: Visual Growth Reduction (%) 14 Days After Application, ZEAMX
SMILES,"pest or weed control at 70 g/ha [1, 3] [%]","pest or weed control at 140 g/ha [1, 3] [%]","pest or weed control at 70 g/ha [1, 4] [%]","pest or weed control at 140 g/ha [1, 4] [%]","pest or weed control at 70 g/ha [1, 5] [%]","pest or weed control at 140 g/ha [1, 5] [%]","pest or weed control at 70 g/ha [1, 6] [%]","pest or weed control at 140 g/ha [1, 6] [%]","pest or weed control at 70 g/ha [1, 7] [%]","pest or weed control at 140 g/ha [1, 7] [%]","pest or weed control at 70 g/ha [1, 8] [%]","pest or weed control at 140 g/ha [1, 8] [%]","pest or weed control at 70 g/ha [1, 9] [%]","pest or weed control at 140 g/ha [1, 9] [%]","pest or weed control at 70 g/ha [2, 10] [%]","pest or weed control at 140 g/ha [2, 10] [%]","pest or weed control at 70 g/ha [2, 11] [%]","pest or weed control at 140 g/ha [2, 11] [%]","pest or weed control at 70 g/ha [2, 12] [%]","pest or weed control at 140 g/ha [2, 12] [%]",further results
COC(=O)c1nc(-c2cc(F)c(C#N)cc2F)c(F)c(N)c1Cl [Compound 198],60 to 74,75 to 84,60 to 74,95 to 100,75 to 84,75 to 84,85 to 94,95 to 100,45 to 59,60 to 74,95 to 100,95 to 100,30 to 44,60 to 74,60 to 74,60 to 74,0 to 29,0 to 29,0 to 29,0 to 29,"pest or weed control at 70 g/ha [2, 13]: 0 to 29%; pest or weed control at 140 g/ha [2, 13]: 0 to 29%; pest or weed control at 70 g/ha [2, 14]: 0 to 29%; pest or weed control at 140 g/ha [2, 14]: 0 to 29%; pest or weed control at 70 g/ha [2, 15]: 0 to 29%; pest or weed control at 140 g/ha [2, 15]: 0 to 29%; pest or weed control at 70 g/ha [2, 16]: 30 to 44%; pest or weed control at 140 g/ha [2, 16]: 45 to 59%; pest or weed control at 70 g/ha [2, 17]: 0 to 29%; pest or weed control at 140 g/ha [2, 17]: 0 to 29%"
"COC(=O)c1nc(-c2cc(F)c(C(F)(F)F)cc2F)cc(N)c1Cl [Compound 70, methyl 4-amino-3-chloro-6-(2,5-difluoro-4-(trifluoromethyl)phenyl)picolinate]",95 to 100,95 to 100,95 to 100,95 to 100,75 to 84,85 to 94,95 to 100,95 to 100,95 to 100,95 to 100,85 to 94,95 to 100,60 to 74,75 to 84,95 to 100,95 to 100,85 to 94,95 to 100,85 to 94,95 to 100,"pest or weed control at 70 g/ha [2, 13]: 0 to 29%; pest or weed control at 140 g/ha [2, 13]: 0 to 29%; pest or weed control at 70 g/ha [2, 14]: 30 to 44%; pest or weed control at 140 g/ha [2, 14]: 60 to 74%; pest or weed control at 70 g/ha [2, 15]: 85 to 94%; pest or weed control at 140 g/ha [2, 15]: 95 to 100%; pest or weed control at 70 g/ha [2, 16]: 75 to 84%; pest or weed control at 140 g/ha [2, 16]: 85 to 94%; pest or weed control at 70 g/ha [2, 17]: 95 to 100%; pest or weed control at 140 g/ha [2, 17]: 95 to 100%"
